What was measured:
giant foxtail = assay: Test A pre-/postemergence herbicide test; type: in vivo, Setaria faberii
Method in brief: (§1)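 Planted in loam–sand blend; treated the same day preemergence by directed soil spray, while separately grown plants at one- to two-leaf stage got postemergence spray. Compared visually with untreated controls after approximately 10 days; 100 means complete control.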

ragweed = assay: Test C pre-/postemergence herbicide test; type: in vivo, Ambrosia elatior
Method in brief: (§2)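 Test compounds, formulated in a surfactant-containing non-phytotoxic solvent blend, are applied to seeded loam/sand soil (preemergence) and to young plants at the 1- to 4-leaf stage in peat-based medium (postemergence). Plants stay 13 to 15 days under greenhouse conditions, then are scored visually relative to controls, 0 = no effect, 100 = complete control.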

lambsquarters = assay: Test C pre-/postemergence herbicide test; type: in vivo, Chenopodium album
Method in brief: as §2

oat, wild = assay: Test C pre-/postemergence herbicide test; type: in vivo, Avena fatua; conditions: Postemergence
Method in brief: as §2

johnsongrass = assay: Test C pre-/postemergence herbicide test; type: in vivo, Sorghum halepense
Method in brief: as §2

sedge, umbrella = assay: Test B flooded paddy test; type: in vivo, Cyperus difformis; conditions: 1000 g ai/ha, Flood; scale of 0 to 100 where 0 is no effect and 100 is complete control
Method in brief: (§3)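 Visual ratings from 0, meaning no effect, up to 100, meaning complete control, were made by comparison with untreated controls 13 to 15 days after treatment. Test compounds went straight into floodwater standing 3 cm over the soil of pots holding 2-leaf seedlings.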

pigweed = assay: Test C pre-/postemergence herbicide test; type: in vivo, Amaranthus retroflexus
Method in brief: as §2

crabgrass, large = assay: Test C pre-/postemergence herbicide test; type: in vivo, Digitaria sanguinalis
Method in brief: as §2

rice = assay: Test B flooded paddy test; type: in vivo, Oryza sativa; conditions: 1000 g ai/ha, Flood; scale of 0 to 100 where 0 is no effect and 100 is complete control
Method in brief: as §3

wheat (winter wheat) = assay: Test C pre-/postemergence herbicide test; type: in vivo, Triticum aestivum
Method in brief: as §2

corn = assay: Test A pre-/postemergence herbicide test; type: in vivo, Zea mays; conditions: Postemergence
Method in brief: as §1

ducksalad = assay: Test B flooded paddy test; type: in vivo, Heteranthera limosa; conditions: 1000 g ai/ha, Flood; scale of 0 to 100 where 0 is no effect and 100 is complete control
Method in brief: as §3

[1] = Postemergence, 31 g ai/ha, scale 0 to 100 (0 no effect, 100 complete control)
[2] = Postemergence, 62 g ai/ha, scale 0 (no effect) to 100 (complete control)
[3] = Postemergence, 125 g ai/ha, scale 0 to 100 (0 no effect, 100 complete control)
[4] = Postemergence, 250 g ai/ha, scale 0 to 100 (0 no effect, 100 complete control)
[5] = Preemergence, 62 g ai/ha, scale 0 to 100 (0 no effect, 100 complete control)
[6] = Preemergence, 125 g ai/ha, scale 0 to 100
[7] = Preemergence, 31 g ai/ha, scale 0 to 100

## O=C1NCC(c2ccc(F)c(F)c2)C1C(=O)Nc1ccc(F)c(F)c1F (stereo not shown) [Compound 346]
Giant foxtail; Postemergence, 125 g ai/ha, visual rating on 0 to 100 scale (0 no effect, 100 complete control), approx. 10 days
  Plant response rating, Foxtail, Giant: 80
Giant foxtail; Postemergence, 500 g ai/ha, 0 to 100 scale (0 no effect, 100 complete control)
  Plant response rating, Foxtail, Giant: 90
Giant foxtail; Preemergence, 125 g ai/ha, 0 to 100 scale where 0 is no effect and 100 is complete control
  Plant response rating, Foxtail, Giant: 90
Giant foxtail; Preemergence, 500 g ai/ha, visual rating on 0 to 100 scale (0 no effect, 100 complete control)
  Foxtail, Giant plant response rating: 90
ragweed; [1]
  Plant response rating, Ragweed: 0
ragweed; [2]
  Plant response rating, Ragweed: 0
ragweed; [3]
  Plant response rating, Ragweed: 0
ragweed; [4]
  Plant response rating, Ragweed: 20
ragweed; [5]
  Ragweed plant response rating: 35
ragweed; [6]
  Plant response rating, Ragweed: 35
ragweed; [7]
  Plant response rating, Ragweed: 50
lambsquarters; [1]
  Plant response rating, Lambsquarters: 45
lambsquarters; [2]
  Plant response rating, Lambsquarters: 5
lambsquarters; [3]
  Plant response rating, Lambsquarters: 5
lambsquarters; [4]
  Plant response rating, Lambsquarters: 65
lambsquarters; [5]
  Lambsquarters plant response rating: 35
lambsquarters; [6]
  Plant response rating, Lambsquarters: 100
lambsquarters; Preemergence, 250 g ai/ha
  Plant response rating (scale of 0 to 100), Lambsquarters: 100
lambsquarters; [7]
  Plant response rating, Lambsquarters: 35
oat, wild; 31 g ai/ha, scale 0 to 100 (0 no effect, 100 complete control)
  Plant response rating, Oat, Wild: 0
oat, wild; 62 g ai/ha, scale 0 (no effect) to 100 (complete control)
  Plant response rating, Oat, Wild: 0
oat, wild; 125 g ai/ha, scale 0 to 100 (0 no effect, 100 complete control)
  Plant response rating, Oat, Wild: 0
oat, wild; 250 g ai/ha, scale 0 to 100 (0 no effect, 100 complete control)
  Plant response rating, Oat, Wild: 0
johnsongrass; [1]
  Plant response rating, Johnsongrass: 100
johnsongrass; [2]
  Plant response rating, Johnsongrass: 0
johnsongrass; [3]
  Plant response rating, Johnsongrass: 0
johnsongrass; [4]
  Plant response rating, Johnsongrass: 0
johnsongrass; [5]
  Johnsongrass plant response rating: 0
johnsongrass; [6]
  Plant response rating, Johnsongrass: 20
johnsongrass; Preemergence, 250 g ai/ha
  Plant response rating (scale of 0 to 100), Johnsongrass: 60
johnsongrass; [7]
  Plant response rating, Johnsongrass: 0
sedge, umbrella
  Plant response rating, Sedge, Umbrella: 0
pigweed; [1]
  Plant response rating, Pigweed: 5
pigweed; [2]
  Plant response rating, Pigweed: 5
pigweed; [3]
  Plant response rating, Pigweed: 20
pigweed; [4]
  Plant response rating, Pigweed: 40
pigweed; [5]
  Pigweed plant response rating: 55
pigweed; [6]
  Plant response rating, Pigweed: 60
pigweed; [7]
  Plant response rating, Pigweed: 40
crabgrass, large; [1]
  Plant response rating, Crabgrass, Large: 0
crabgrass, large; [2]
  Plant response rating, Crabgrass, Large: 25
crabgrass, large; [3]
  Plant response rating, Crabgrass, Large: 60
crabgrass, large; [4]
  Plant response rating, Crabgrass, Large: 75
crabgrass, large; [5]
  Crabgrass, Large plant response rating: 95
crabgrass, large; [6]
  Plant response rating, Crabgrass, Large: 98
crabgrass, large; Preemergence, 250 g ai/ha
  Plant response rating (scale of 0 to 100), Crabgrass, Large: 100
crabgrass, large; [7]
  Plant response rating, Crabgrass, Large: 95
rice
  Plant response rating, Rice: 0
Wheat (winter wheat); [1]
  Plant response rating, Wheat: 0
Wheat (winter wheat); [2]
  Plant response rating, Wheat: 0
Wheat (winter wheat); [3]
  Plant response rating, Wheat: 0
Wheat (winter wheat); [4]
  Plant response rating, Wheat: 0
Wheat (winter wheat); [5]
  Wheat plant response rating: 0
Wheat (winter wheat); [6]
  Plant response rating, Wheat: 0
Wheat (winter wheat); [7]
  Plant response rating, Wheat: 0
corn; 125 g ai/ha, visual rating on 0 to 100 scale (0 no effect, 100 complete control), approx. 10 days
  Plant response rating, Corn: 20
corn; 500 g ai/ha, 0 to 100 scale (0 no effect, 100 complete control)
  Plant response rating, Corn: 40
ducksalad
  Plant response rating, Ducksalad: 100

— patent US10294202B2, “Pyrrolidinones as herbicides” (FMC Corporation, priority 2013, dated 2019)
